Columns and labels:
[1] = biological target: Protein-tyrosine kinase 6 (Homo sapiens) (UniProt Q13882); test: Inhibition of BRK (unknown origin) assessed as remaining activity at 1 uM by Kinome scan method relative to control
[2] = biological target: Mitogen-activated protein kinase 4 (Homo sapiens) (UniProt P31152); test: Inhibition of ERK4 (unknown origin) assessed as remaining activity at 1 uM by Kinome scan method relative to control
[3] = biological target: Macrophage-stimulating protein receptor (Homo sapiens) (UniProt Q04912); test: Inhibition of MST1R (unknown origin) assessed as remaining activity at 1 uM by Kinome scan method relative to control
[4] = biological target: T1, Serine/threonine-protein kinase BRSK1 (Homo sapiens) (UniProt Q8TDC3); test: Inhibition of BRSK1 (unknown origin) assessed as remaining activity at 1 uM by Kinome scan method relative to control
T1 sequence (whole entry): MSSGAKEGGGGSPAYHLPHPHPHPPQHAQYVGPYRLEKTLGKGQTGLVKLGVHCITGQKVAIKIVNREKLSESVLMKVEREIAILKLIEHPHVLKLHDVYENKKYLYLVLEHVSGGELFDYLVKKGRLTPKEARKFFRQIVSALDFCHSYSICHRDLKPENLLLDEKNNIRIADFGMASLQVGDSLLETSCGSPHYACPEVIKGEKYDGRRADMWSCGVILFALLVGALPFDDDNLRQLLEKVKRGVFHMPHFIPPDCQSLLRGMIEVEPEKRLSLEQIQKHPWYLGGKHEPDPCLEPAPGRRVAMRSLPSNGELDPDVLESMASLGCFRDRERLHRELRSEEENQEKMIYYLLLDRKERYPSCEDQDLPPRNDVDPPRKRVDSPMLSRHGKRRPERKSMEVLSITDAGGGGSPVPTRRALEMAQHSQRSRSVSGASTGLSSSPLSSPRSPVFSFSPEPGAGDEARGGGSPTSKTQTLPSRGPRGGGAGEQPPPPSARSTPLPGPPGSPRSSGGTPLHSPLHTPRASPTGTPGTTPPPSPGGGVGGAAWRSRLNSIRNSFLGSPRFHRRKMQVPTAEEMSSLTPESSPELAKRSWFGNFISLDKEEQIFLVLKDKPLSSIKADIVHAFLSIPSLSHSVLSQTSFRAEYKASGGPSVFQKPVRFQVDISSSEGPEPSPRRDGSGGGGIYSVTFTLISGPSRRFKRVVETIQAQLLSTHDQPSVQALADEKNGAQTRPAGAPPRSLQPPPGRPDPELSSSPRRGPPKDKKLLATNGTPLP

[5] = biological target: Tyrosine-protein kinase receptor Tie-1 (Homo sapiens) (UniProt P35590); test: Inhibition of TIE1 (unknown origin) assessed as remaining activity at 1 uM by Kinome scan method relative to control
[6] = biological target: Serine/threonine-protein kinase 38 (Homo sapiens) (UniProt Q15208); test: Inhibition of NDR1 (unknown origin) assessed as remaining activity at 1 uM by Kinome scan method relative to control
[7] = biological target: BDNF/NT-3 growth factors receptor (Homo sapiens) (UniProt Q16620); test: Inhibition of TRKB (unknown origin) assessed as remaining activity at 1 uM by Kinome scan method relative to control
[8] = biological target: T2, Tyrosine-protein kinase ITK/TSK (Homo sapiens) (UniProt Q08881); test: Inhibition of ITK (unknown origin) assessed as remaining activity at 1 uM by Kinome scan method relative to control
T2 sequence (whole entry): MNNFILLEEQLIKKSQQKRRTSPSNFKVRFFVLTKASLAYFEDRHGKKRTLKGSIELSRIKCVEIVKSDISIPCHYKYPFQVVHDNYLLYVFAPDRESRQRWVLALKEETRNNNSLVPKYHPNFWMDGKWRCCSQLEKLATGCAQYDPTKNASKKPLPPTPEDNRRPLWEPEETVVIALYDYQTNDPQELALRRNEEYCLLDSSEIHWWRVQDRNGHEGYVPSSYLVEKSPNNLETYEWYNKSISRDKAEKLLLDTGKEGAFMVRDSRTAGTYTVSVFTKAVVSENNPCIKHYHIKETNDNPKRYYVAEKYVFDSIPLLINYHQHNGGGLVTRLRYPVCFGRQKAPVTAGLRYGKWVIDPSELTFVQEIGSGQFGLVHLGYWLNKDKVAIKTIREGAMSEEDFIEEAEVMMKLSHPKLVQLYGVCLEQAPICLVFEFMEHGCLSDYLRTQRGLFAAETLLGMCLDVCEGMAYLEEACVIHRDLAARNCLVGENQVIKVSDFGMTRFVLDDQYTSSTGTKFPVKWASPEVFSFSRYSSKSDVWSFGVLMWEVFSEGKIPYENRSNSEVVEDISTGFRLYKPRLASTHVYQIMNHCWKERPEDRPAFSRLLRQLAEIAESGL

[9] = biological target: Maternal embryonic leucine zipper kinase (Homo sapiens) (UniProt Q14680); test: Inhibition of MELK (unknown origin) assessed as remaining activity at 1 uM by Kinome scan method relative to control
[10] = biological target: Dual specificity mitogen-activated protein kinase kinase 6 (Homo sapiens) (UniProt P52564); test: Inhibition of MEK6 (unknown origin) assessed as remaining activity at 1 uM by Kinome scan method relative to control
[11] = biological target: Serine/threonine-protein kinase 36 (Homo sapiens) (UniProt Q9NRP7); test: Inhibition of STK36 (unknown origin) assessed as remaining activity at 1 uM by Kinome scan method relative to control

Chain of Macrophage-stimulating protein receptor (Homo sapiens) (Q04912 25-304 limits assumed): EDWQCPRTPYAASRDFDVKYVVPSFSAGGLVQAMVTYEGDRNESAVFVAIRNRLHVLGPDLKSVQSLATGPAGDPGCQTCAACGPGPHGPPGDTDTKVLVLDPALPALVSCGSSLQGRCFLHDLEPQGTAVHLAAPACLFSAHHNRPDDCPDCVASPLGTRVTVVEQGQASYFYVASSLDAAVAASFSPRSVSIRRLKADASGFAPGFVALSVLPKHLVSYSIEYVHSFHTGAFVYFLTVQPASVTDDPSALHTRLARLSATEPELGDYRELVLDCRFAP
Chain of Macrophage-stimulating protein receptor (Homo sapiens) (Q04912 310-1400 limits assumed): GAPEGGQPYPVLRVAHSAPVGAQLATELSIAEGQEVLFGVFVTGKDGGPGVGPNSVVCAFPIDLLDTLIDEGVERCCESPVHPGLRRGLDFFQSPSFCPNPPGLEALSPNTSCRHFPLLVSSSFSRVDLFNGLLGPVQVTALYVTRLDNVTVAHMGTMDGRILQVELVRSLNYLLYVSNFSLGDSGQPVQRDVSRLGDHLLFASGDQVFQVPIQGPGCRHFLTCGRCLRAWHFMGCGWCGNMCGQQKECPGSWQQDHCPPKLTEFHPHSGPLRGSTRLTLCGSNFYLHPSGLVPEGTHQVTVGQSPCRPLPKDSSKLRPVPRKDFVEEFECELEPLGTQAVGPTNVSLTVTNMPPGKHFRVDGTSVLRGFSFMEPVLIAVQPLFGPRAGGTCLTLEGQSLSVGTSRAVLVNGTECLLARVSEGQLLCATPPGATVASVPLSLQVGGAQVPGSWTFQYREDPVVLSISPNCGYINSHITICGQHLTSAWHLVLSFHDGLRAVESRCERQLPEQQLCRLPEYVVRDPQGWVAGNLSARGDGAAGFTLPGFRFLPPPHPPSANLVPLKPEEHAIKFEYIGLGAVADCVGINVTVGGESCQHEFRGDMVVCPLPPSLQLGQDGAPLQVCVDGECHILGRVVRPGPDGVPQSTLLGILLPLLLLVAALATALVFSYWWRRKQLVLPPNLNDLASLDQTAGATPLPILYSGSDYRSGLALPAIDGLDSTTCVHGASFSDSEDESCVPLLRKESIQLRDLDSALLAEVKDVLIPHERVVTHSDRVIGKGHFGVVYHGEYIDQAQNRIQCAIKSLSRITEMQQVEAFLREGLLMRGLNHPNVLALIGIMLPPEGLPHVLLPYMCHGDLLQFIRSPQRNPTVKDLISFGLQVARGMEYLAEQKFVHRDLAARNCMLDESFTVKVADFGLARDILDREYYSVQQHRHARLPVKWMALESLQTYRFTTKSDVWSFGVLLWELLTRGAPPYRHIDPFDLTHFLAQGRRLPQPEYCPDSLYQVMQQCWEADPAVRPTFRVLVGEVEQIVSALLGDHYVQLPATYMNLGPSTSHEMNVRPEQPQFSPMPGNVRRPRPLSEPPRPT
Chain of Dual specificity mitogen-activated protein kinase kinase 6 (Homo sapiens) (P52564 whole entry): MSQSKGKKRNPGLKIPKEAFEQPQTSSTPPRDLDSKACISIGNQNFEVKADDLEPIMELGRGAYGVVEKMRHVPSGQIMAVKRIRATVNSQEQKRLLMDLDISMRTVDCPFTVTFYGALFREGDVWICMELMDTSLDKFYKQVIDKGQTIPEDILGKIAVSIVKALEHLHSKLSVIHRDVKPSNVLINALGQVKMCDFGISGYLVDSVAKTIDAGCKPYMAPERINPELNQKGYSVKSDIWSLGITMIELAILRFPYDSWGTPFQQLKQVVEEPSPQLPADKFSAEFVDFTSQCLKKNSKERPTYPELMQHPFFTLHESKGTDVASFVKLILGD
Chain of Maternal embryonic leucine zipper kinase (Homo sapiens) (Q14680 whole entry, looked up): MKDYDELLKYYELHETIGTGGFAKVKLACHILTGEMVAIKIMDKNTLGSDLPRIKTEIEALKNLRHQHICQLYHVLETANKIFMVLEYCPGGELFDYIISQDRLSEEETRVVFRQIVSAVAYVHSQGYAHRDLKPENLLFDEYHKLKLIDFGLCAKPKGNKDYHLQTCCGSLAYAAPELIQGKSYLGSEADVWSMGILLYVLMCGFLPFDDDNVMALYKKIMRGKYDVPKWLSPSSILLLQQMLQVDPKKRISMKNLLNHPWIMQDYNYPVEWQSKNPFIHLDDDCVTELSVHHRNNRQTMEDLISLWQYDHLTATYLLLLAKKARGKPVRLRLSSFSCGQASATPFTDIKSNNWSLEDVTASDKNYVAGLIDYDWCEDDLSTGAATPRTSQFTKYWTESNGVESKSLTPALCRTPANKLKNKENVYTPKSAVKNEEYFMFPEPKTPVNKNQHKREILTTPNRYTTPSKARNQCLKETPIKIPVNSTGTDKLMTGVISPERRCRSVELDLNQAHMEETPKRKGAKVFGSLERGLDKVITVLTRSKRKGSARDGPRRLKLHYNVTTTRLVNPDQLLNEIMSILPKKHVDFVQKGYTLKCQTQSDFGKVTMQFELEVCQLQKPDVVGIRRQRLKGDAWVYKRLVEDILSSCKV
Chain of BDNF/NT-3 growth factors receptor (Homo sapiens) (Q16620 32-822 limits assumed): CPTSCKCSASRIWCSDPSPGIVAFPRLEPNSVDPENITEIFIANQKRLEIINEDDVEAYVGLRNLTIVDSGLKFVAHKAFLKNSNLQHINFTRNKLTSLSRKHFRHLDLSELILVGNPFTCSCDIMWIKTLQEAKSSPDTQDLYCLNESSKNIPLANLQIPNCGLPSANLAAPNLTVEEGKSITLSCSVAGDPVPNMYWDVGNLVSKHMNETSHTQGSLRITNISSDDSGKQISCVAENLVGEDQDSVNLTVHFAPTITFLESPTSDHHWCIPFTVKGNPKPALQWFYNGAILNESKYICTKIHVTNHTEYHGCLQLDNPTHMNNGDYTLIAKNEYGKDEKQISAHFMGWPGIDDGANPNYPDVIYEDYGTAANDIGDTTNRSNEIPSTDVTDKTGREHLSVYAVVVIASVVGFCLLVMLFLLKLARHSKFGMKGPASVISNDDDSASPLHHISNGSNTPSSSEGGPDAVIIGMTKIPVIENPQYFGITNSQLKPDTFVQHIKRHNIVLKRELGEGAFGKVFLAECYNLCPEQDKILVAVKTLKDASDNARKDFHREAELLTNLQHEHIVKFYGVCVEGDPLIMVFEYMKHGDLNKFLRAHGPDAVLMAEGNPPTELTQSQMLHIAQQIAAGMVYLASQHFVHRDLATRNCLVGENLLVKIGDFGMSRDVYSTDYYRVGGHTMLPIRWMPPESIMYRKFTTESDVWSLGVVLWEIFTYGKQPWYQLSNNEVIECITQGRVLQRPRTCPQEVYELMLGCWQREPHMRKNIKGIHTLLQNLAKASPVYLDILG
Chain of Mitogen-activated protein kinase 4 (Homo sapiens) (P31152 whole entry): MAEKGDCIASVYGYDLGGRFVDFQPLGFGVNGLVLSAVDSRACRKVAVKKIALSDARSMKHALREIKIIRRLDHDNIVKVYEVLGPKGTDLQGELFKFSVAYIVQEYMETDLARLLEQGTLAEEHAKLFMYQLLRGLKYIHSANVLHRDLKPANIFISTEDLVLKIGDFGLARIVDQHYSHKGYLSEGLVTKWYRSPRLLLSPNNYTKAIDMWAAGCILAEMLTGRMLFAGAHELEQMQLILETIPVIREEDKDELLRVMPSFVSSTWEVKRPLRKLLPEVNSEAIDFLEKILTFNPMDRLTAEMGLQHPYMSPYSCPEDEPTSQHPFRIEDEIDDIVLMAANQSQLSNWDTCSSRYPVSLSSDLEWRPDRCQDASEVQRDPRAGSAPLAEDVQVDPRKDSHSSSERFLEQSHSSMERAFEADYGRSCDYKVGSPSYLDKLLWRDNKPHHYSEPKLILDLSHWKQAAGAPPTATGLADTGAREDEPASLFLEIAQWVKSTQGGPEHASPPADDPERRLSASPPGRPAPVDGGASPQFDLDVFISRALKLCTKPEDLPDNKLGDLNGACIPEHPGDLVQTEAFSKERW
Chain of Protein-tyrosine kinase 6 (Homo sapiens) (Q13882 whole entry, looked up): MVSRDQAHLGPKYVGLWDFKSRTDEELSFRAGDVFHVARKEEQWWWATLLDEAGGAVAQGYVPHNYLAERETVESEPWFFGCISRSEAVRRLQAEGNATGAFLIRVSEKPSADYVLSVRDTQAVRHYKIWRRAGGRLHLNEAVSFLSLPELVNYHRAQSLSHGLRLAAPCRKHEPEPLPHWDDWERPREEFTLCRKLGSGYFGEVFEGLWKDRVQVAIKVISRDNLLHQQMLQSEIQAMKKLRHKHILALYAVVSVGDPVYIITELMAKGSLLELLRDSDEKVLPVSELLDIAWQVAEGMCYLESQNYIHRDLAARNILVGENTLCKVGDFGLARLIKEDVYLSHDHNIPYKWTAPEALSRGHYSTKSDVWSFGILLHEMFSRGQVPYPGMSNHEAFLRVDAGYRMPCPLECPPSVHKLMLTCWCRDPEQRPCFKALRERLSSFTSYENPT
Chain of Serine/threonine-protein kinase 38 (Homo sapiens) (Q15208 2-465 limits assumed): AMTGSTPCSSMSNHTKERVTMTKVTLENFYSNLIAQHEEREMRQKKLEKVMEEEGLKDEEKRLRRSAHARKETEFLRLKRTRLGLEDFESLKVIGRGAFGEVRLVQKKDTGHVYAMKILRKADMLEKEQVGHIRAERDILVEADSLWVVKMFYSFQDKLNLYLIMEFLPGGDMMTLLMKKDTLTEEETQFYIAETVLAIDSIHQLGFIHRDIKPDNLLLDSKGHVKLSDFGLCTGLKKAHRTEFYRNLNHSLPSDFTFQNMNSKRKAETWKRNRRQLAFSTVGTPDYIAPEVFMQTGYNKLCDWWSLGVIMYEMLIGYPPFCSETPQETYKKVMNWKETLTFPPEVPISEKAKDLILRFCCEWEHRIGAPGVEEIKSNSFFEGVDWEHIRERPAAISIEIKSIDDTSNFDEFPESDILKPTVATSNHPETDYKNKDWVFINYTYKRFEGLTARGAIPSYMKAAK

Row | SMILES | Activity [1] [%] | Activity [2] [%] | Activity [3] [%] | Activity [4] [%] | Activity [5] [%] | Activity [6] [%] | Activity [7] [%] | Activity [8] [%] | Activity [9] [%] | Activity [10] [%] | Activity [11] [%]
1 | Nc1ccccc1Nc1ccc2c(c1)CCc1ccccc1C2=O | 97 | 97 | 97 | 98 | 96 | 81 | 85 | 98 | 86 | 76 | 97
2 | O=C1c2ccc(Nc3ccc(F)cc3F)cc2CCc2ccc(OC[C@H](O)CO)cc21 [Skepinone-L] | 98 | 100 | 79 | 100 | 100 | 87 | 100 | 100 | 94 | 82 | 98

From ChEMBL document CHEMBL5696441 (Nat Chem Biol, 2011)
